The values below are quoted from earlier work in patent publication US10925895B2, “Composition and method of using medicament for treatment of cancers and tumors” (priority 2014, dated 2021).

Series [1] has as its system Enterococcus faelicalis.
Series [2] concerns organic tissue.

Where two headings read alike, the source gives them in different places.

Consider `[Ca+2].[OH-].[OH-]` [Calcium hydroxide, calcium hydroxide], for which, in series [1], the “effectiveness against Enterococcus faecalis” value was “ineffective”.

With `OCl` [Sodium hypochlorite, sodium hypochlorite], the “effectiveness against Enterococcus faecalis” value in series [1] is reported as “not effective”. For the same compound, the entries for the “effectiveness as tissue dissolving agent” value in series [2] (5.25% for 40 minutes) and in series [2] (at 1.3-2.5%) were “highly effective” and “ineffective”, respectively.
